Reference: patent publication US20250205264A1, “METHODS OF USING AVERMECTIN COMPOSITIONS FOR THE TREATMENT OF SPASTICITY AND DOSING REGIMENS” (priority 2022, published 2025)

Legend:
[1] = Excipient compatibility study at 40° C./75% RH (HPLC Assay/Related Substances); format: physicochemical; conditions: for Total Impurities % (% adjusted area): excluding API impurities; for Total Impurities % (% adjusted area) / Chromatographic purity by HPLC (% area): 40° C./75% RH
Protocol: An excipient compatibility study was initiated with selected excipients ranging from oils to surfactants based on equilibrium solubility results (Table 2). […] After solutions were prepared using a hand-held homogenizer (Model IKAT10 Ultra-Turrax), each excipient sample was aliquoted in amber vials, approximately 10% water was added in each excipient aliquot, and bench scale gel stripe OET-004037 was also made and added in a separate set of aliquot samples at approximately 1:1 w/w.
All samples were stored at 40° C./75% relative humidity (RH) condition (Model: Lunaire environmental chamber) and tested by developmental reversed phase HPLC method for Assay/Related Substances at T=0, 2 weeks, and 1 month.

[2] = Ivermectin solubility determination in excipients
Protocol: The solubility assessments were performed by continually adding a known amount of the API into each individual excipient and letting the excipient reach solubility equilibrium via API saturation (visible solid observed). The experiments were conducted at ambient conditions (25° C.) and were left to mix on a stir plate at 500 RPM for at least 72 hours.

[3] = Pharmacokinetics of Ivermectin B1a in SD rat plasma after IV or oral administration; conditions: 2 mg/kg, fasting, male
Protocol: Thirty-six male Sprague Dawley rats were randomly assigned into four groups, with nine male rats in each group. All animals in all groups are fasted overnight prior to the experimental date.
Blood samples were collected from 6 of 9 animals per group at 0.5, 1, 2, 3, 4, 6, 8, 24, 72, 120, 168 hours post-dose.

[4] = in PEG 400, Control, T = 2 weeks
[5] = in PEG 400, Gel Stripe (1:1 w/w), T = 2 weeks
[6] = in Tween 80, 10% water, T = 1 months
[7] = in Tween 80, 10% water, T = 2 weeks
[8] = in Tween 80, Control, T = 1 months
[9] = in Tween 80, Control, T = 2 weeks
[10] = in Tween 80, Gel Stripe (1:1 w/w), T = 1 months
[11] = in Tween 80, Gel Stripe (1:1 w/w), T = 2 weeks
[12] = in Vitamin E TPGS, 10% water, T = 1 months
[13] = in Vitamin E TPGS, 10% water, T = 2 weeks
[14] = in Vitamin E TPGS, Control, T = 0
[15] = in Vitamin E TPGS, Control, T = 1 months
[16] = in Vitamin E TPGS, Control, T = 2 weeks
[17] = in Vitamin E TPGS, Gel Stripe (1:1 w/w), T = 1 months
[18] = in Vitamin E TPGS, Gel Stripe (1:1 w/w), T = 2 weeks

ivermectin
Total Impurities % (% adjusted area) ([1]; in PEG 400, 10% water, T = 2 weeks): 3.15 % adjusted area | Chromatographic purity by HPLC (% area) ([1]; in PEG 400, Control, T = 0): 97.58 % area | Total Impurities % (% adjusted area) ([1]; in PEG 400, Control, T = 0): 0.10 % adjusted area | Chromatographic purity by HPLC (% area) [1, 4]: 89.36 % area | Total Impurities % (% adjusted area) [1, 4]: 8.54 % adjusted area | Chromatographic purity by HPLC (% area) [1, 5]: 96.92 % area | Total Impurities % (% adjusted area) [1, 5]: 0.50 % adjusted area | Chromatographic purity by HPLC (% area) [1, 6]: 91.18 % area | Total Impurities % (% adjusted area) [1, 6]: 6.94 % adjusted area | Chromatographic purity by HPLC (% area) [1, 7]: 93.02 % area | Total Impurities % (% adjusted area) [1, 7]: 3.53 % adjusted area | Chromatographic purity by HPLC (% area) ([1]; in Tween 80, Control, T = 0): 97.53 % area | Total Impurities % (% adjusted area) ([1]; in Tween 80, Control, T = 0): 0.16 % adjusted area | Chromatographic purity by HPLC (% area) [1, 8]: 88.45 % area | Total Impurities % (% adjusted area) [1, 8]: 10.55 % adjusted area | Chromatographic purity by HPLC (% area) [1, 9]: 91.87 % area | Total Impurities % (% adjusted area) [1, 9]: 4.86 % adjusted area | Chromatographic purity by HPLC (% area) [1, 10]: 93.51 % area | Total Impurities % (% adjusted area) [1, 10]: 4.22 % adjusted area | Chromatographic purity by HPLC (% area) [1, 11]: 93.97 % area | Total Impurities % (% adjusted area) [1, 11]: 2.43 % adjusted area | Chromatographic purity by HPLC (% area) [1, 12]: 97.46 % area | Total Impurities % (% adjusted area) [1, 12]: <LOQ | Chromatographic purity by HPLC (% area) [1, 13]: 96.99 % area | Total Impurities % (% adjusted area) [1, 13]: 0.42 % adjusted area | Chromatographic purity by HPLC (% area) [1, 14]: 97.74 % area | Total Impurities % (% adjusted area) [1, 14]: <LOQ | Chromatographic purity by HPLC (% area) [1, 15]: 97.37 % area | Total Impurities % (% adjusted area) [1, 15]: 0.11 % adjusted area | Chromatographic purity by HPLC (% area) [1, 16]: 97.43 % area | Total Impurities % (% adjusted area) [1, 16]: <LOQ | Chromatographic purity by HPLC (% area) [1, 17]: 97.74 % area | Total Impurities % (% adjusted area) [1, 17]: <LOQ | Chromatographic purity by HPLC (% area) [1, 18]: 97.50 % area | Total Impurities % (% adjusted area) [1, 18]: <LOQ | chemical compatibility with the API ([1]; oily vehicles Maisine CC, fractionated coconut oil, and oleic acid): good chemical compatibility | Solubility ([2]; in Capryol 90, 25° C.): 150.92 mg/g | Solubility ([2]; in Fractionated Coconut oil, 25° C.): 16.55 mg/g | Solubility ([2]; in Glycerin, 25° C.): <0.1 mg/g | Solubility ([2]; in Kolliphor EL, 25° C.): 95.85 mg/g | Solubility ([2]; in Labrafil M 2125 CS, 25° C.): 35.32 mg/g | Solubility ([2]; in Labrasol ALF, 25° C.): 126.36 mg/g | Solubility ([2]; in LauroglycolTM FCC, 25° C.): 71.96 mg/g | Solubility ([2]; in Maisine CC, 25° C.): 60.17 mg/g | Solubility ([2]; in Masester E8120, 25° C.): 164.06 mg/g | Solubility ([2]; in Medium Chain Triglyceride, 25° C.): 16.49 mg/g | Solubility ([2]; in Oleic acid, 25° C.): 48.58 mg/g | Solubility ([2]; in Olive oil, 25° C.): 4.71 mg/g | Solubility ([2]; in PEG 400, 25° C.): 112.92 mg/g | Solubility ([2]; in Propylene glycol, 25° C.): 25.61 mg/g | Solubility ([2]; in Soybean oil, 25° C.): 6.72 mg/g | Solubility ([2]; in Span 20, 25° C.): 97.66 mg/g | Solubility ([2]; in Span 80, 25° C.): 54.04 mg/g | Solubility ([2]; in Triacetin, 25° C.): 58.75 mg/g | Solubility ([2]; in Tween 80, 25° C.): 88.26 mg/g | Solubility ([2]; in Vitamin E TPGS, table title 25° C., text b171: conducted at 40° C.): 82.98 mg/g | AUC(0-t) [3]: 8259.31 ± 1032.95 ng·h/mL | AUC(0-∞) [3]: 8273.53 ng·h/mL | Cmax [3]: 1722.67 ng/mL | MRT(0-t) [3]: 10.58 h | MRT(0-∞) [3]: 10.81 h | T1/2 [3]: 14.82 ± 0.72 h | Tmax [3]: 0.50 h
